# Measured values from publication PMC10449633 (Nature Chemical Biology, 2023).
# Like-named read-outs stand apart in the source and are kept apart here. Numbered stars: 1 amine (or outer) side, 2 acyl side, 3 side chain; on linkers, the order of the positions; unused ones are H or OH. Square brackets hold non-standard residues; d marks the D form. Peptide text beside a SMILES is read from it. ξ: configuration not given here. X1 = CN(C(Cc1cn(Cc2ccc(Br)cc2)c2ccccc12)C(=O)[*:2])[*:1]; ξAla(CF3) = NC(CC(F)(F)F)C(=O)O; X2 = N#CCCC(O[*:1])C(=O)[*:2]; NMeL = CN[CH](CC(C)C)C(=O)O; NMeA = CN[CH](C)C(=O)O
# Assays:
# Wild Type Sec61α = Wild Type Sec61α (Canis lupus familiaris, UniProt P38377); experiment: Luciferase reporter assay in HEK293 Flp-In T-REx cells expressing Wild Type Sec61α; parameters: remaining activity: dose or concentration left out as unconfirmed; conditions: HEK293, 24 h, read-out: luciferase reporter activity (% of no-drug control), Wild Type
# Experimental: (§1) Data are mean values ± s.d. from n = 2 independent experiments.
# (§2) HEK293T cells (0.3 × 10^6) were seeded per well of a six-well plate and incubated at 37 °C in 5% CO2 for 24 h to adhere. Each of the two wells was transfected with 1 µg of plasmid encoding a luciferase with the signal peptide of either VCAM1 or pPL using PEI in a 5:1 ratio, after which cells were returned to the incubator for a further 24 h. Transfected cells were then resuspended following trypsinization, cell count estimated using a TC20 Automated Cell Counter (BioRad) and diluted to seed a 96-well flat-bottom plate with 1.6 × 10^4 cells per well. […] Cells were then incubated for a further 24 h, after which the luciferase-containing media were transferred to a clean 96-well plate and stored at −20 °C. Luciferase activity of the media was estimated using a Gaussia-GLOW Juice Luciferase Assay kit from PJK Biotech GmbH as per the manufacturer’s instructions. Luminescence was measured using an EnSpire Multimode plate reader (PerkinElmer). Background luminescence from media placed in a well with neither cells nor drug was subtracted from all values, and measurements were calculated as a percentage of luminescence intensity of a well expressing the appropriate luciferase construct in the absence of any drug. Curves were fitted, and IC50 values were calculated using GraphPad Prism 8.
# (§3) HEK293 Flp-In T-REx cells (Thermo Fisher Scientific, R78007) were cultured in Dulbecco’s modified Eagle’s medium (Gibco) supplemented with 10% FBS (Gibco) at 37 °C in a humidified 5% CO2 atmosphere. Approximately 0.3 µg of pOG44 and 1 µg of targeting construct plasmids were mixed in 250 µl of OptiMEM (Thermo Fisher Scientific, 51985-026). A total of 3 µl (3 µg) Lipofectamine3000 transfection reagent was then added to the DNA mix and incubated at room temperature for 20 min, and the whole mixture was added to the cells. Cells were exposed to 100 µg ml^−^1 hygromycin B (Invitrogen) and 10 µg ml^−^1 blasticidin for 3–4 weeks until the appearance of resistant colonies. Colonies were expanded into T75 flasks and induced with doxycycline (Sigma-Aldrich, D9891) at a concentration of 1–5 µg ml^−^1 for 48 h. Cells were collected, and total RNA was extracted followed by cDNA amplification and sequencing of Sec61 with gene-specific PCR primers to confirm. Cells were then used for the luciferase reporter assays as above.
# (§4) Data are mean values ± SD and are representative of n = 2 independent experiments.
# Sec61α V303A = Sec61α V303A (Canis lupus familiaris, UniProt P38377, V303A); experiment: Luciferase reporter assay in HEK293 cells expressing Sec61α V303A; parameters: remaining activity: dose or concentration left out as unconfirmed; conditions: HEK293, 24 h, read-out: luciferase reporter activity (% of no-drug control), V303A
# Experimental: as §1, §2
# (§5) WT canine Sec61 was cloned into pcDNA5/FRT/TO (Thermo Fisher Scientific), and point mutations were generated using PCR. All mutants were sequence verified. HEK293 Flp-In T-REx cells (Thermo Fisher Scientific, R78007) were cultured in Dulbecco’s modified Eagle’s medium (Gibco) supplemented with 10% FBS (Gibco) at 37 °C in a humidified 5% CO2 atmosphere. Approximately 0.3 µg of pOG44 and 1 µg of targeting construct plasmids were mixed in 250 µl of OptiMEM (Thermo Fisher Scientific, 51985-026). A total of 3 µl (3 µg) Lipofectamine3000 transfection reagent was then added to the DNA mix and incubated at room temperature for 20 min, and the whole mixture was added to the cells. Cells were exposed to 100 µg ml^−^1 hygromycin B (Invitrogen) and 10 µg ml^−^1 blasticidin for 3–4 weeks until the appearance of resistant colonies. Colonies were expanded into T75 flasks and induced with doxycycline (Sigma-Aldrich, D9891) at a concentration of 1–5 µg ml^−^1 for 48 h. Cells were collected, and total RNA was extracted followed by cDNA amplification and sequencing of Sec61 with gene-specific PCR primers to confirm. Cells were then used for the luciferase reporter assays as above.
# as §4
# Sec61α N300M = Sec61α N300M (Canis lupus familiaris, UniProt P38377, N300M); experiment: Luciferase reporter assay in HEK293 cells expressing Sec61α N300M; conditions: HEK293, 24 h, read-out: luciferase reporter activity (% of no-drug control), N300M
# Experimental: as §1, §2, §3, §4
# Sec61α Q127A = Sec61α Q127A (Canis lupus familiaris, UniProt P38377, Q127A); experiment: Luciferase reporter assay in HEK293 cells expressing Sec61α Q127A; parameters: remaining activity: dose or concentration left out as unconfirmed; conditions: HEK293, 24 h, read-out: luciferase reporter activity (% of no-drug control), Q127A
# Experimental: as §1, §2, §5, §4
# Sec61α S305A = Sec61α S305A (Canis lupus familiaris, UniProt P38377, S305A); experiment: Luciferase reporter assay in HEK293 cells expressing Sec61α S305A; parameters: remaining activity: dose or concentration left out as unconfirmed; conditions: HEK293, 24 h, read-out: luciferase reporter activity (% of no-drug control), S305A
# Experimental: as §1, §2, §3, §4
# human PBMCs = conditions: concentrations up to 20 µM; PBMCs and splenocytes
# Sequence of Sec61α V303A (P60059 whole entry): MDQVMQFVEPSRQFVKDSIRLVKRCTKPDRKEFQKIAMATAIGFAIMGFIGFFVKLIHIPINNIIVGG
# Sequence of Sec61α V303A (P38377 whole entry V303A): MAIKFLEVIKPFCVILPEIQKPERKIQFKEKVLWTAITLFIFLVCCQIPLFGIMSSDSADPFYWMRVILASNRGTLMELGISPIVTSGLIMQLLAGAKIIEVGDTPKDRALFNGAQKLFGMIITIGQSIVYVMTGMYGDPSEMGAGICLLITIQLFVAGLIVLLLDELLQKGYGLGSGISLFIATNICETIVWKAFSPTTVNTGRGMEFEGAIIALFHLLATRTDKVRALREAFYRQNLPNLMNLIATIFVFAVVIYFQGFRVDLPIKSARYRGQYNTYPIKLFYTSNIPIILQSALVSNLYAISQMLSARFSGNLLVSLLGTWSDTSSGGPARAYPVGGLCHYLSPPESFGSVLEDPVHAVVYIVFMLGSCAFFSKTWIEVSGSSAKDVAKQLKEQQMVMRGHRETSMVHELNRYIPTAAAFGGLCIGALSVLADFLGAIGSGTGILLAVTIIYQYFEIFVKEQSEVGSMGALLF
# Sequence of Sec61α V303A (P60468 whole entry, further chain): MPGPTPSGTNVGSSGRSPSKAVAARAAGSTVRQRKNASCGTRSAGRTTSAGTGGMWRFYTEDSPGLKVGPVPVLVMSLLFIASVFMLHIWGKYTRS
# Sequence of Sec61α Q127A (P60059 whole entry): as the sequence (P60059 whole entry) above
# Sequence of Sec61α Q127A (P60468 whole entry, further chain): as the sequence (P60468 whole entry, further chain) above
# Sequence of Sec61α Q127A (P38377 whole entry Q127A): as the sequence (P38377 whole entry V303A) above, with Q127A, A303V counted along it
# Sequence of Wild Type Sec61α (P38377 whole entry): as the sequence (P38377 whole entry V303A) above, with A303V counted along it
# Sequence of Wild Type Sec61α (P60468 whole entry, further chain): as the sequence (P60468 whole entry, further chain) above
# Sequence of Wild Type Sec61α (P60059 whole entry, further chain): as the sequence (P60059 whole entry) above
# Sequence of Sec61α N300M (P38377 whole entry N300M): as the sequence (P38377 whole entry V303A) above, with N300M, A303V counted along it
# Sequence of Sec61α N300M (P60468 whole entry, further chain): as the sequence (P60468 whole entry, further chain) above
# Sequence of Sec61α N300M (P60059 whole entry, further chain): as the sequence (P60059 whole entry) above
# Sequence of Sec61α S305A (P38377 whole entry S305A): as the sequence (P38377 whole entry V303A) above, with A303V, S305A counted along it
# Sequence of Sec61α S305A (P60059 whole entry, further chain): as the sequence (P60059 whole entry) above
# Sequence of Sec61α S305A (P60468 whole entry, further chain): as the sequence (P60468 whole entry, further chain) above
smiles,measurement,setting,value
CC(C)CC1NC(=O)C(Cc2cn(Cc3ccc(Br)cc3)c3ccccc23)N(C)C(=O)C(CC(F)(F)F)NC(=O)C(CC(C)C)N(C)C(=O)C(CC(F)(F)F)NC(=O)C(CCC#N)OC(=O)C(C)N(C)C1=O (centres unmarked) [KZR-8445] (cyclo([X1]L[NMeA][X2][ξAla(CF3)][NMeL][ξAla(CF3)]); configuration not given here),remaining activity at 0.00018303 µM,Wild Type Sec61α; Drug nM (log10) 0.18303,85.5%
same,remaining activity at 0.000660151 µM,Wild Type Sec61α; Drug nM (log10) 0.660151,69.5%
same,remaining activity at 0.00113727 µM,Wild Type Sec61α; Drug nM (log10) 1.13727,51.6%
same,remaining activity,Wild Type Sec61α; Drug nM (log10) 1.61439,27.8%
same,remaining activity,Wild Type Sec61α; Drug nM (log10) 2.09151,11.4%
same,remaining activity,Wild Type Sec61α; Drug nM (log10) 2.56864,4.55%
same,remaining activity,Wild Type Sec61α; Drug nM (log10) 3.04576,2.42%
same,remaining activity,Wild Type Sec61α; Drug nM (log10) 3.52288,1.93%
same,remaining activity at 0.004 µM,Wild Type Sec61α; Drug nM (log10) 4,2.26%
same,remaining activity at 0.00050805 µM,Wild Type Sec61α; Drug nM (log10) -0.29409,91.1%
same,remaining activity at 0.00018303 µM,Sec61α V303A; Drug nM (log10) 0.18303,95.1%
same,remaining activity at 0.000660151 µM,Sec61α V303A; Drug nM (log10) 0.660151,82.2%
same,remaining activity at 0.00113727 µM,Sec61α V303A; Drug nM (log10) 1.13727,64.5%
same,remaining activity,Sec61α V303A; Drug nM (log10) 1.61439,42%
same,remaining activity,Sec61α V303A; Drug nM (log10) 2.09151,21.1%
same,remaining activity,Sec61α V303A; Drug nM (log10) 2.56864,8.79%
same,remaining activity,Sec61α V303A; Drug nM (log10) 3.04576,3.93%
same,remaining activity,Sec61α V303A; Drug nM (log10) 3.52288,2.95%
same,remaining activity at 0.004 µM,Sec61α V303A; Drug nM (log10) 4,3.21%
same,remaining activity at 0.00050805 µM,Sec61α V303A; Drug nM (log10) -0.29409,96.2%
same,remaining activity at 0.00018303 µM,Sec61α N300M; Drug nM (log10) 0.18303,96.7%
same,remaining activity at 0.000660151 µM,Sec61α N300M; Drug nM (log10) 0.660151,105%
same,remaining activity,Sec61α N300M; Drug nM (log10) 1.61439,76.6%
same,remaining activity,Sec61α N300M; Drug nM (log10) 2.09151,74%
same,remaining activity,Sec61α N300M; Drug nM (log10) 3.04576,68%
same,remaining activity at 0.000508 µM,Sec61α N300M; Drug nM (log10) -0.29409,92.5%
same,remaining activity at 0.00018303 µM,Sec61α Q127A; Drug nM (log10) 0.18303,76.3%
same,remaining activity at 0.000660151 µM,Sec61α Q127A; Drug nM (log10) 0.660151,76.5%
same,remaining activity at 0.00113727 µM,Sec61α Q127A; Drug nM (log10) 1.13727,51.2%
same,remaining activity,Sec61α Q127A; Drug nM (log10) 1.61439,32.3%
same,remaining activity,Sec61α Q127A; Drug nM (log10) 2.09151,14.7%
same,remaining activity,Sec61α Q127A; Drug nM (log10) 2.56864,6.52%
same,remaining activity,Sec61α Q127A; Drug nM (log10) 3.04576,3.21%
same,remaining activity,Sec61α Q127A; Drug nM (log10) 3.52288,2.56%
same,remaining activity at 0.004 µM,Sec61α Q127A; Drug nM (log10) 4,2.87%
same,remaining activity at 0.000508 µM,Sec61α Q127A; Drug nM (log10) -0.29409,88.9%
same,remaining activity at 0.00018303 µM,Sec61α S305A; Drug nM (log10) 0.18303,82.1%
same,remaining activity at 0.000660151 µM,Sec61α S305A; Drug nM (log10) 0.660151,68.1%
same,remaining activity at 0.00113727 µM,Sec61α S305A; Drug nM (log10) 1.13727,47.4%
same,remaining activity,Sec61α S305A; Drug nM (log10) 1.61439,27.2%
same,remaining activity,Sec61α S305A; Drug nM (log10) 2.09151,13%
same,remaining activity,Sec61α S305A; Drug nM (log10) 2.56864,5.54%
same,remaining activity,Sec61α S305A; Drug nM (log10) 3.04576,3.19%
same,remaining activity,Sec61α S305A; Drug nM (log10) 3.52288,2.55%
same,remaining activity at 0.004 µM,Sec61α S305A; Drug nM (log10) 4,3.24%
same,remaining activity at 0.00050805 µM,Sec61α S305A; Drug nM (log10) -0.29409,89.3%
same,effects on cell viability,human PBMCs,minimal effects
